Reference: the supplement of paper PMC8882468

Tests used:
Assay in all cases: CTG-3D luminescence at 96 h relative to day-0 seeding control (ratio to day 0); higher = more growth / less cytotoxicity
HCI-001 = system: HCI-001 (organoid from a triple-negative breast cancer xenograft)
Procedure: (§1)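 PDX-derived breast cancer organoids (PDxO) in 384-well Matrigel plates, 8-point dose (0.000000625-100 uM), 96 h at 37 C; CellTiter-Glo 3D luminescence normalised to the day-0 seeding control (mean of 4 technical replicates over mean of 4 day-0 wells).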

HCI-003.E2 = system: HCI-003.E2 (organoid from an ER-positive breast cancer xenograft)
Procedure: as §1

HCI-010 = system: HCI-010 (organoid from a breast cancer xenograft)
Procedure: as §1

HCI-011.E2 = system: HCI-011.E2 (organoid from an ER-positive breast cancer xenograft)
Procedure: as §1

HCI-024 = system: HCI-024 (organoid from a breast cancer xenograft)
Procedure: as §1

HCI-025 = system: HCI-025 (organoid from a breast cancer xenograft)
Procedure: as §1

O=c1[nH]cc(F)c(=O)[nH]1 [5-fluorouracil]
CTG-3D luminescence at 96 h
Conditions | 12.5 pM | 0.00025 µM | 0.005 µM | 0.1 µM | 1 µM | 10 µM | 100 µM | 625 fM
HCI-001, days in culture: 240 | 1.75 | 1.08 | 1.16 | 0.972 | 1.31 | 0.84 | 0.903 | 1.74
HCI-001, days in culture: 260 | 2.43 | 1.07 | 2.1 | 1.43 | 1.62 | 1.42 | 1.14 | 1.09
HCI-001, days in culture: 269 | 1.52 | 1.48 | 1.32 | 1.97 | 1.62 | 2.03 | 1.46 | 1.77
HCI-001, days in culture: 327 | 1.6 | 1.41 | 2.11 | 1.91 | 1.54 | 1.38 | 1.51 | 1.69
HCI-001, days in culture: 346 | 1.42 | 1.55 | 1.28 | 1.28 | 1.41 | 1.26 | 1.3 | 1.12
HCI-001, days in culture: 364 | 1.68 | 1.19 | 1.35 | 1.35 | 1.13 | 1.21 | 0.902 | 1.55
HCI-010, days in culture: 52 | 2.25 | 2.58 | 2.49 | 2.66 | 2.42 | 2.48 | 1.51 | 2.55
HCI-010, days in culture: 65 | 1.67 | 1.68 | 1.87 | 1.73 | 1.83 | 1.73 | 1.18 | 1.66
HCI-010, days in culture: 103 | 3.85 | 3.56 | 3.46 | 3.56 | 3.17 | 2.42 | 2.1 | 3.28
HCI-011.E2, days in culture: 74 | 1.83 | 2.05 | 1.91 | 1.77 | 2.19 | 2.63 | 1.57 | 1.62
HCI-024, days in culture: 105 | 1.58 | 1.5 | 1.45 | 1.66 | 1.59 | 1.53 | 0.681 | 2.03
HCI-024, days in culture: 122 | 2.23 | 2.19 | 1.64 | 1.97 | 1.98 | 2.04 | 0.857 | 3.11
HCI-024, days in culture: 163 | 2.3 | 2.61 | 1.89 | 2.32 | 2.29 | 1.9 | 1.21 | 2.13
HCI-025, days in culture: 172 | 2.59 | 1.93 | 3.91 | 1.56 | 1.55 | 0.982 | 0.597 | 2.53
HCI-025, days in culture: 209 | 2.04 | 2.56 | 1.99 | 1.52 | 1.7 | 1.25 | 0.569 | 1.37
HCI-025, days in culture: 218 | 1.7 | 1.9 | 1.92 | 1.65 | 1.37 | 1.61 | 0.855 | 1.86

CTG-3D luminescence at 96 h
Conditions | 12.5 pM | 0.00025 µM | 0.005 µM | 0.1 µM | 1 µM | 10 µM | 100 µM | 625 fM
HCI-003.E2 | 2.25 | 2.06 | 1.93 | 2.08 | 1.85 | 1.87 | 0.993 | 2.19
HCI-011.E2 | 1.56 | 1.46 | 1.7 | 1.81 | 1.73 | 2.08 | 1.35 | 1.63
